# Source: US12410208B2, “(2-acetamidyl)thio-beta-D-galactopyranoside derivatives” (Idorsia Pharmaceuticals Ltd, priority 2020, dated 2025)
# Like-named read-outs stand apart in the source and are kept apart here.
# Assays:
# human Gal-1 (hGal-1) = human Gal-1 (hGal-1) (Homo sapiens, UniProt P09382); test: Competitive binding assay: biotinylated hGal-1 binding to microplate-adsorbed asialofetuin (ASF), spectrophotometric; details: hGal-1 binding to asialofetuin; Table 15; R and S epimers of selected Examples also listed; read-out: IC50 (Galectin-1 inhibition)
# Sequence of human Gal-1 (hGal-1) (P09382 whole entry): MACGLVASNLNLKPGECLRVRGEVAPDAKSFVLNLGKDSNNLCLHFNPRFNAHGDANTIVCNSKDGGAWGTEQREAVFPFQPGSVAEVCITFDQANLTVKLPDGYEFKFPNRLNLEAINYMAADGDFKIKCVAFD
# Summary of the method: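 Spectrophotometric competition readout with ABTS after streptavidin-peroxidase (80 ng/mL, 1 h, 4 °C) detection of bound biotinylated hGal-1.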
# [1] = biological target: biotinylated human Gal-3 (hGal-3) (Homo sapiens, UniProt P17931); test: Competitive binding assay: biotinylated hGal-3 binding to microplate-adsorbed asialofetuin (ASF), spectrophotometric
# Sequence of biotinylated human Gal-3 (hGal-3) (P17931 whole entry): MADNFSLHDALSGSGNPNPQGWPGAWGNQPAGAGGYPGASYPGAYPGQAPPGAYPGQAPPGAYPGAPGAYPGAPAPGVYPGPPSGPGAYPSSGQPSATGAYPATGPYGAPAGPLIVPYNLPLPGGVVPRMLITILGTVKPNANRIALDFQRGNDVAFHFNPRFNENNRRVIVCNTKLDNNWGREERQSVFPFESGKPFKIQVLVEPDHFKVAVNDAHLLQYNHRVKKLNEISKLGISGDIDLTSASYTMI
# Summary of the method: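 Serially diluted compounds competed with asialofetuin on the plate for biotinylated human Gal-3 during a 3 h incubation at 4° C. Streptavidin-peroxidase with ABTS gave the spectrophotometric signal. IC50 values were averaged over repeat runs.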
# [2] = Gal-3 inhibition, Table 5, read-out: IC50
# [3] = Table 9, hGal-3, read-out: IC50 (Gal-3 inhibition)
# [4] = Gal-3 inhibition, Table 4, read-out: IC50
# [5] = Table 12, hGal-3, read-out: IC50 (Gal-3 inhibition)
Compound,IC50 (human Gal-1 (hGal-1)),"IC50 [1, 2]",other results
"CCN(C)C(=O)[C@H](S[C@@H]1O[C@H](CO)[C@H](O)[C@H](n2cc(-c3cc(F)c(F)c(F)c3)nn2)[C@H]1O)C1(O)CC(F)(F)C1 [Example 2.33.203R., (R)-2-(3,3-Difluoro-1-hydroxycyclobutyl)-2-(((2S,3R,4S,5R,6R)-3,5-dihydroxy-6-(hydroxymethyl)-4-(4-(3,4,5-trifluorophenyl)-1H-1,2,3-triazol-1-yl)tetrahydro-2H-pyran-2-yl)thio)-N-ethyl-N-methylacetamide]",4200 nM,1450 nM,
CN(C(=O)[C@@H](S[C@@H]1O[C@H](CO)[C@H](O)[C@H](n2cc(-c3cc(F)c(F)c(F)c3)nn2)[C@H]1O)C1(O)CCOCC1)c1cccnc1 [Example 2.41.234S.],100 nM,,"IC50 [1, 3]: 100 nM"
"CN(CCC1CCOCC1)C(=O)[C@@H](S[C@@H]1O[C@H](CO)[C@H](O)[C@H](n2cc(-c3cc(F)c(F)c(F)c3)nn2)[C@H]1O)C1(O)CCOCC1 [Example 2.41.216S., (S)-2-(((2S,3R,4S,5R,6R)-3,5-Dihydroxy-6-(hydroxymethyl)-4-(4-(3,4,5-trifluorophenyl)-1H-1,2,3-triazol-1-yl)tetrahydro-2H-pyran-2-yl)thio)-2-(4-hydroxytetrahydro-2H-pyran-4-yl)-N-methyl-N-(2-(tetrahydro-2H-pyran-4-yl)ethyl)acetamide]",110 nM,,"IC50 [1, 4]: 20 nM"
"CN(CC1CC1)C(=O)C(S[C@@H]1O[C@H](CO)[C@H](O)[C@H](n2cc(-c3cc(F)c(F)c(F)c3)nn2)[C@H]1O)C1(O)CCC1 (stereo partly drawn) [Example 2.34.218., N-(Cyclopropylmethyl)-2-(((2S,3R,4S,5R,6R)-3,5-dihydroxy-6-(hydroxymethyl)-4-(4-(3,4,5-trifluorophenyl)-1H-1,2,3-triazol-1-yl)tetrahydro-2H-pyran-2-yl)thio)-2-(1-hydroxycyclobutyl)-N-methylacetamide]",220 nM,310 nM,
"CO[C@@H]1[C@@H](n2cc(-c3cc(F)c(F)c(F)c3)nn2)[C@@H](O)[C@@H](CO)O[C@H]1SC(C(=O)NC(C)C)C1(O)CCC(F)(F)CC1 (stereo partly drawn) [Example 2.44.251.I., 2-(4,4-Difluoro-1-hydroxycyclohexyl)-2-(((2S,3R,4S,5R,6R)-5-hydroxy-6-(hydroxymethyl)-3-methoxy-4-(4-(3,4,5-trifluorophenyl)-1H-1,2,3-triazol-1-yl)tetrahydro-2H-pyran-2-yl)thio)-N-isopropylacetamide]",190 nM,,"IC50 [1, 5]: 90 nM"
"CN(C(=O)C(S[C@@H]1O[C@H](CO)[C@H](O)[C@H](n2cc(-c3cc(F)c(F)c(F)c3)nn2)[C@H]1O)C1(O)CCC(F)(F)CC1)C1CC1 (stereo partly drawn) [Example 2.44.221., N-Cyclopropyl-2-(4,4-difluoro-1-hydroxycyclohexyl)-2-(((2S,3R,4S,5R,6R)-3,5-dihydroxy-6-(hydroxymethyl)-4-(4-(3,4,5-trifluorophenyl)-1H-1,2,3-triazol-1-yl)tetrahydro-2H-pyran-2-yl)thio)-N-methylacetamide]",60 nM,30 nM,
"2-(4,4-Difluoro-1-hydroxycyclohexyl)-2-(((2S,3R,4S,5R,6R)-3,5-dihydroxy-6-(hydroxymethyl)-4-(4-(3,4,5-trifluorophenyl)-1H-1,2,3-triazol-1-yl)tetrahydro-2H-pyran-2-yl)thio)-1-(piperidin-1-yl)ethan-1-one [Example 2.44.208.]",210 nM,70 nM,
"CN1CCC(O)(C(S[C@@H]2O[C@H](CO)[C@H](O)[C@H](n3cc(-c4cc(F)c(F)c(F)c4)nn3)[C@H]2O)C(=O)N2CCc3ccccc32)CC1 (stereo partly drawn) [Example 2.40.209., 2-(((2S,3R,4S,5R,6R)-3,5-Dihydroxy-6-(hydroxymethyl)-4-(4-(3,4,5-trifluorophenyl)-1H-1,2,3-triazol-1-yl)tetrahydro-2H-pyran-2-yl)thio)-2-(4-hydroxy-1-methylpiperidin-4-yl)-1-(indolin-1-yl)ethan-1-one]",230 nM,,"IC50 [1, 4]: 120 nM"
"CO[C@@H]1[C@@H](n2cc(-c3cc(F)c(F)c(F)c3)nn2)[C@@H](O)[C@@H](CO)O[C@H]1SC(C(=O)N1CCC(F)(F)CC1)C1(O)CCC(C)(C)CC1 (stereo partly drawn) [Example 2.68.226.I., 1-(4,4-Difluoropiperidin-1-yl)-2-(1-hydroxy-4,4-dimethylcyclohexyl)-2-(((2S,3R,4S,5R,6R)-5-hydroxy-6-(hydroxymethyl)-3-methoxy-4-(4-(3,4,5-trifluorophenyl)-1H-1,2,3-triazol-1-yl)tetrahydro-2H-pyran-2-yl)thio)ethan-1-one]",190 nM,,"IC50 ([1]; Table 13, hGal-3, read-out: IC50 (Gal-3 inhibition)): 100 nM"
"CN(CC(C)(C)C)C(=O)C(S[C@@H]1O[C@H](CO)[C@H](O)[C@H](n2cc(-c3cc(F)c(F)c(F)c3)nn2)[C@H]1O)C(C)(C)O (stereo partly drawn) [Example 2.31.228., 2-(((2S,3R,4S,5R,6R)-3,5-Dihydroxy-6-(hydroxymethyl)-4-(4-(3,4,5-trifluorophenyl)-1H-1,2,3-triazol-1-yl)tetrahydro-2H-pyran-2-yl)thio)-3-hydroxy-N,3-dimethyl-N-neopentylbutanamide]",1650 nM,,"IC50 ([1]; Table 6, hGal-3, read-out: IC50 (Gal-3 inhibition)): 670 nM"
"CN(CC1CC1)C(=O)[C@@H](S[C@@H]1O[C@H](CO)[C@H](O)[C@H](n2cc(-c3cc(F)c(F)c(F)c3)nn2)[C@H]1O)C1(O)CCC1 [Example 2.34.218S., (S)-N-(Cyclopropylmethyl)-2-(((2S,3R,4S,5R,6R)-3,5-dihydroxy-6-(hydroxymethyl)-4-(4-(3,4,5-trifluorophenyl)-1H-1,2,3-triazol-1-yl)tetrahydro-2H-pyran-2-yl)thio)-2-(1-hydroxycyclobutyl)-N-methylacetamide]",70 nM,60 nM,
"CN(Cc1cn(C)cn1)C(=O)C(S[C@@H]1O[C@H](CO)[C@H](O)[C@H](n2cc(-c3cc(F)c(F)c(F)c3)nn2)[C@H]1O)C1(O)CCOCC1 (stereo partly drawn) [Example 2.41.215., 2-(((2S,3R,4S,5R,6R)-3,5-Dihydroxy-6-(hydroxymethyl)-4-(4-(3,4,5-trifluorophenyl)-1H-1,2,3-triazol-1-yl)tetrahydro-2H-pyran-2-yl)thio)-2-(4-hydroxytetrahydro-2H-pyran-4-yl)-N-methyl-N-((1-methyl-1H-imidazol-4-yl)methyl)acetamide]",370 nM,,"IC50 [1, 4]: 60 nM"
"CO[C@@H]1[C@@H](n2cc(-c3cc(F)c(F)c(F)c3)nn2)[C@@H](O)[C@@H](CO)O[C@H]1SC(C(=O)N(C)CCC(C)(C)C)C1(O)CCC(F)(F)CC1 (stereo partly drawn) [Example 2.44.225.I., 2-(4,4-Difluoro-1-hydroxycyclohexyl)-N-(3,3-dimethylbutyl)-2-(((2S,3R,4S,5R,6R)-5-hydroxy-6-(hydroxymethyl)-3-methoxy-4-(4-(3,4,5-trifluorophenyl)-1H-1,2,3-triazol-1-yl)tetrahydro-2H-pyran-2-yl)thio)-N-methylacetamide]",120 nM,,"IC50 [1, 5]: 100 nM"
CN(C(=O)[C@@H](S[C@@H]1O[C@H](CO)[C@H](O)[C@H](n2cc(-c3cc(F)c(F)c(F)c3)nn2)[C@H]1O)C1(O)CCOCC1)c1ccccn1 [Example 2.41.233S.],30 nM,,"IC50 [1, 3]: 40 nM"
"CCN(C)C(=O)[C@@H](S[C@@H]1O[C@H](CO)[C@H](O)[C@H](n2cc(-c3cc(F)c(F)c(F)c3)nn2)[C@H]1O)C1(O)CCN(S(=O)(=O)C2CC2)CC1 [Example 2.51.203S., (S)-2-(1-(Cyclopropylsulfonyl)-4-hydroxypiperidin-4-yl)-2-(((2S,3R,4S,5R,6R)-3,5-dihydroxy-6-(hydroxymethyl)-4-(4-(3,4,5-trifluorophenyl)-1H-1,2,3-triazol-1-yl)tetrahydro-2H-pyran-2-yl)thio)-N-ethyl-N-methylacetamide [1,3-di-deoxy-1-((2-(1-(cyclopropylsulfonyl)-4-hydroxypiperidin-4-yl)-N-ethyl-N-methylacetamide)-(S)-thio)-3-[4-(3,4,5-trifluorophenyl)-1H-1,2,3-triazol-1-yl]-β-D-galactopyranoside]]",30 nM,,"IC50 ([1]; Table 8, hGal-3, read-out: IC50 (Gal-3 inhibition)): 20 nM"
"CN(CC(C)(C)F)C(=O)C(S[C@@H]1O[C@H](CO)[C@H](O)[C@H](n2cc(-c3cc(F)c(F)c(F)c3)nn2)[C@H]1O)C1(O)CCCCC1 (stereo partly drawn) [Example 2.39.222., 2-(((2S,3R,4S,5R,6R)-3,5-Dihydroxy-6-(hydroxymethyl)-4-(4-(3,4,5-trifluorophenyl)-1H-1,2,3-triazol-1-yl)tetrahydro-2H-pyran-2-yl)thio)-N-(2-fluoro-2-methylpropyl)-2-(1-hydroxycyclohexyl)-N-methylacetamide]",120 nM,50 nM,
"CCN(C)C(=O)C(S[C@@H]1O[C@H](CO)[C@H](O)[C@H](n2cc(-c3cc(F)c(F)c(F)c3)nn2)[C@H]1O)C1(O)CCOCC1 (stereo partly drawn) [Example 2.41.203., 2-(((2S,3R,4S,5R,6R)-3,5-Dihydroxy-6-(hydroxymethyl)-4-(4-(3,4,5-trifluorophenyl)-1H-1,2,3-triazol-1-yl)tetrahydro-2H-pyran-2-yl)thio)-N-ethyl-2-(4-hydroxytetrahydro-2H-pyran-4-yl)-N-methylacetamide]",420 nM,90 nM,
"CN(CCC(C)(C)C)C(=O)C(S[C@@H]1O[C@H](CO)[C@H](O)[C@H](n2cc(-c3cc(F)c(F)c(F)c3)nn2)[C@H]1O)C1(O)CCC(F)(F)CC1 (stereo partly drawn) [Example 2.44.225., 2-(4,4-Difluoro-1-hydroxycyclohexyl)-2-(((2S,3R,4S,5R,6R)-3,5-dihydroxy-6-(hydroxymethyl)-4-(4-(3,4,5-trifluorophenyl)-1H-1,2,3-triazol-1-yl)tetrahydro-2H-pyran-2-yl)thio)-N-(3,3-dimethylbutyl)-N-methylacetamide]",150 nM,70 nM,
